{"source": "patent US12560588B2", "about": "“High-efficiency screening method for RNA-targeting drugs using nanopores” (KOREA RESEARCH INSTITUTE OF BIOSCIENCE AND BIOTECHNOLOGY, priority 2020, dated 2026)", "key": {"[1]": {"system": "adenine-sensing riboswitch (ARS)", "assay": "α-hemolysin nanopore measurement of ARS with ligand", "type": "binding, Vibrio vulnificus", "conditions": "for dwell time relative to free ARS: type-II translocation event, individual compounds", "experimental": "RNAs were synthesized by Integrated DNA Technologies (Coralville, IA, USA). All RNAs were dialyzed against 10 mM potassium phosphate (pH 6.2) buffer for at least 12 hours. After heating RNAs at 95° C. for 5 minutes, it was cooled quickly in the ice and annealed. The nanopore experiment was performed at RNA concentration of 10 to 500 nm. α-hemolysin (α-HL) protein was purchased from List Biological Laboratories Inc. (CAMPBELL, CA, USA). 1,2-diphytanoylsn-glycero-3-phosphocholine(DPhPC) was purchased from Avanti Polar Lipids (Alabaster, Al, USA).\nSpecifically, in the buffer containing 10 mM potassium phosphate (pH 6.2), 2 mM MgCl2 and 1M KCl, free ARS or ARS-adenine complex was added to the cis face of a lipid bilayer with a single α-HL nanopore. If the voltage of (+) 100 mV is applied on the nanopore, the free ARS or the ARS-adenine complex is driven by electrophoresis to block the ion current. The nanopore events of the free ARS and ARS-adenine complex were statistically analyzed (a to c in FIG. 2).\nThe average I/I0 value of level 1 (III1) of the type-II event is 0.45, which corresponds to about 50% of level 2 (III2). After separating the types I and II nanopore events of the complex, each type of event was statistically analyzed. The type I and II events of the ARS-adenine complex is different in the average value and dwell time of I/I0 ((b) to (c) in FIG. 3)."}, "[2]": {"system": "ARS", "assay": "1D CPMG ligand-observed NMR", "conditions": "absence vs presence of ARS"}, "[3]": {"system": "TPP riboswitch (TRS)", "type": "binding"}, "[4]": {"system": "5′L-iav-RNA", "type": "binding, influenza A virus"}, "[5]": {"system": "3′L-iav-RNA", "type": "binding, influenza A virus"}, "[6]": {"system": "adenine-sensing riboswitch (ARS)", "assay": "1D 1H NMR of ARS with adenine", "conditions": "high salt concentration (1M KCl)"}, "[7]": {"system": "PreQ1-sensing riboswitch (PreQ1 rs)", "assay": "α-hemolysin nanopore measurement of PreQ1 rs with PreQ1", "type": "binding", "experimental": "The PreQ1 rs is synthesized by Integrated DNA Technologies (Coralville, IA, USA). The PreQ1 rs used in the test was designed by adding GG sequences to the 5′ end of the 34nt basic aptamer sequences for the ease of secondary verification (NMR analysis, etc.) of the riboswitch structural change by binding of the PreQ1 ligand. The PreQ1 rs RNAs were dialyzed against 10 mM potassium phosphate (pH 6.2) buffer for at least 12 hours. After heating RNAs at 95° C. for 5 minutes, it was cooled quickly in the ice and annealed. All nanopore tests were performed at 500 nM concentration.\nSpecifically, in the buffer containing 10 mM potassium phosphate (pH 6.2) and 1M KCl, 500 nM of free PreQ1 rs was added to the cis face of a lipid bilayer with the α-HL nanopore. It was observed that the PreQ1 rs was driven by electrophoresis to block the ion current if the (+) voltage was applied on the nanopore.\nSince then, to confirm whether the interaction of ligands can be detected at a single molecule level, the PreQ1 rs-PreQ1 complex was added to the cis face of the lipid bilayer with the nanopore in the buffer containing 10 mm phosphate (pH 6.2) and 1M KCl. When the (+) voltage is applied to the nanopore, the ion current is blocked as the PreQ1 rs-PreQ1 complex enters the nanopore by electrophoresis. In the current blockade event of the PreQ1 rs-PreQ1 complex, both type A and type B events were observed, and active nanopore current traces were confirmed (FIG. 17, bottom panel)."}}}
{"compound": "O=C(/C=C/c1ccc(O)c(O)c1)O[C@@H]1[C@H](O)C[C@@](O)(C(=O)O)C[C@H]1OC(=O)/C=C/c1ccc(O)c(O)c1", "note": "[NC1, 3,4-dicaffeoylquinic acid]", "values": [{"measurement": "nanopore event type observed", "setting": "[1]; ARS with ligand", "value": "types II translocation event"}, {"measurement": "dwell time relative to free ARS", "setting": "[1]", "value": "more than twice"}, {"measurement": "binding to ARS by 1D CPMG", "setting": "[2]", "value": "definite binding"}]}
{"compound": "Cc1ncc(C[n+]2csc(CCO[P@](=O)(O)OP(=O)(O)O)c2C)c(N)n1", "note": "[TPP, thiamine pyrophosphate]", "values": [{"measurement": "average dwell time", "setting": "[3]", "value": 0.22, "unit": "ms"}, {"measurement": "dwell time of type-I event", "setting": "[3]", "value": 0.21, "unit": "ms"}, {"measurement": "dwell time of type-II event", "setting": "[3]", "value": 4.37, "unit": "ms"}, {"measurement": "type-II dwell time increase versus free TRS", "setting": "[3]", "value": 1.3, "unit": "times"}, {"measurement": "type-II event rate", "setting": "[3]", "value": 14.3, "unit": "%"}, {"measurement": "type-II event rate increase versus free TRS", "setting": "[3]", "value": 1.6, "unit": "times"}]}
{"compound": "COc1cc2nc(N3CCNCC3)nc(N)c2cc1OC", "note": "[DPQ, 6,7-dimethoxy-2-(1-piperazinyl)-4-quinazolinamine]", "values": [{"measurement": "average nanopore dwell time", "setting": "[4]", "value": 1.14, "unit": "ms"}, {"measurement": "dwell time", "setting": "[4]", "value": 1.47, "unit": "ms"}, {"measurement": "nanopore average dwell time", "setting": "[5]", "value": 9.52, "unit": "ms"}]}
{"compound": "NCCCS(=O)(=O)O", "note": "[tramiprosate]", "values": [{"measurement": "binding to ARS by 1D CPMG", "setting": "[2]", "value": "non-binding"}]}
{"compound": "O=C(/C=C/c1ccc(O)c(O)c1)O[C@H]1[C@H](O)C[C@](O)(C(=O)O)C[C@H]1OC(=O)/C=C/c1ccc(O)c(O)c1", "note": "[NC2, 4,5-dicaffeoylquinic acid]", "values": [{"measurement": "nanopore event type observed", "setting": "[1]; ARS with ligand", "value": "types II translocation event"}, {"measurement": "dwell time relative to free ARS", "setting": "[1]", "value": "more than twice"}, {"measurement": "binding to ARS by 1D CPMG", "setting": "[2]", "value": "definite binding"}]}
{"compound": "Nc1ncnc2c1ncn2[C@@H]1O[C@H](COP(=O)(O)OP(=O)(O)OP(=O)(O)O)[C@@H](O)[C@H]1O", "note": "[ATP]", "values": [{"measurement": "binding to ARS by 1D CPMG", "setting": "[2]", "value": "non-binding"}]}
{"compound": "Neomycin", "values": [{"measurement": "average nanopore dwell time", "setting": "[4]", "value": 3.48, "unit": "ms"}, {"measurement": "dwell time increase versus free viral RNA", "setting": "[4]", "value": "about 8.1 times"}]}
{"compound": "O=C(O)[C@H]1O[C@@H](Oc2cc(O)c3c(=O)cc(-c4ccc(O)c(O)c4)oc3c2)[C@H](O)[C@@H](O)[C@@H]1O", "note": "[NC4, luteolin-7-glucuronide]", "values": [{"measurement": "nanopore event type observed", "setting": "[1]; ARS with ligand", "value": "types II translocation event"}, {"measurement": "dwell time relative to free ARS", "setting": "[1]", "value": "more than twice"}, {"measurement": "binding to ARS by 1D CPMG", "setting": "[2]", "value": "definite binding"}]}
{"compound": "Nc1ncnc2nc[nH]c12", "note": "[adenine]", "values": [{"measurement": "binding to ARS by imino proton peaks", "setting": "[6]", "value": "bound"}, {"measurement": "nanopore event type observed", "setting": "[1]; ARS with ligand", "value": "mixture of the type I and type-II events"}, {"measurement": "average dwell time (td)", "setting": "[1]; ARS with ligand, all events, +100 mV, 1M KCl", "value": 0.63, "unit": "ms"}, {"measurement": "dwell time of the type-I event (tI)", "setting": "[1]; ARS-adenine complex", "value": 0.28, "unit": "ms"}, {"measurement": "dwell time of the type-II event (tII)", "setting": "[1]; ARS-adenine complex", "value": 2.14, "unit": "ms"}, {"measurement": "nanopore dwell time of the type-II event (tII)", "setting": "[1]; adenine added to MIX-3", "value": 2.52, "unit": "ms"}, {"measurement": "type-II dwell time relative to free ARS", "setting": "[1]; adenine added to MIX-3", "value": "up to 6.6 times"}, {"measurement": "type-II dwell time relative to the type-I event", "setting": "[1]; adenine-bound ARS", "value": 7.64, "unit": "times"}]}
{"compound": "NCC1C=Nc2nc(N)[nH]c(=O)c21", "note": "(stereo not shown) [PreQ1, 7-aminomethyl-7-deazaguanine]", "values": [{"measurement": "type A event rate", "setting": "[7]; PreQ1 rs-PreQ1 complex", "value": 26.5, "unit": "%"}, {"measurement": "type B event rate", "setting": "[7]; PreQ1 rs-PreQ1 complex", "value": 73.5, "unit": "%"}, {"measurement": "type B event rate increase versus free PreQ1 rs", "setting": "[7]; ligand-bound state", "value": "about 1.5 times"}]}
{"compound": "Oc1cc(O)c2c(c1)O[C@H](c1ccc(O)c(O)c1)[C@H](O)C2", "note": "[(−)-epicatechin]", "values": [{"measurement": "binding to ARS by 1D CPMG", "setting": "[2]", "value": "non-binding"}]}
